These results are taken from patent US20070060549A1, “COMBINATION THERAPIES EMPLOYING ACE INHIBITORS AND USES THEREOF FOR THE TREATMENT OF DIABETIC DISORDERS” (priority 2004, published 2007).

Series [1] relates to hypertensive patients with type 2 diabetes. The conditions noted are these: 8 weeks.
Method: Summary of Study Design—The phase II study was a randomized, parallel group, cross-over, double-blinded to study medication, placebo-controlled comparison of P5P BID at total daily doses of 100, 300 or 1000 mg alone and in combination with 20 mg lisinopril given once daily (QD). In order to protect against antihypertensive and metabolic carry-over effects of lisinopril, 160 patients were randomized in 2 different treatment sequences. Patients randomized in the first treatment sequence received an 8-week treatment with lisinopril 20 mg and P5P (or placebo) and then an 8-week treatment with P5P alone (or placebo). […]
Mean trough sitting and standing BP were measured at each visit. […]
Ambulatory blood pressure (ABP) was measured using a SpaceLabs Medical ABPM Monitor Model 90207 (SpaceLabs Medical Inc., Redmond, Wash.). […] Following the initiation of two manual readings, a third manual reading was initiated and began the 24-hour monitoring period. […] A manual reading was initiated at the end of the 24-hour period to ensure that there was at least one data point in the last hour of the 24-hour period. Subjects were instructed to initiate a manual reading should they be late for their scheduled clinic appointment to ensure that a reading in the last hour of the 24-hour period was not missed. On completion of the readings, the ABPM device was removed from the subject. […]
Series [2] relates to rats. Briefly: 14-day oral administration of P5P to rats. It counts as in vivo, rat. The conditions noted are these: orally 50 mg/kg for 14 days. The protocol: (§1) As a prelude to human clinical studies, the toxicology of P5P was assessed by conventional means using two animal species, rats and dogs. […] Long term studies, 13-week oral toxicity in dogs, and 26-week oral toxicity in rats, were completed.

In series [3] the test system is patients. As to the kind of experiment: Phase I single dose tolerance study of P5P. Type of series: in vivo, human. As to the method: (§2) In a Phase I single dose tolerance study, conducted in accordance with generally accepted clinical practice standards, groups of six patients were tested at 15 mg/kg, 30 mg/kg, and 60 mg/kg (enteric coated tablets). […] Four subjects in the 60 mg/kg dose group reported a total of 10 adverse events including diarrhea, bradycardia, bubbly stomach, flatulence, and headaches that were mild in severity.

Series [4] concerns diabetic hypertensive patients. Briefly: Phase II clinical study of P5P: glycated hemoglobin (HbA1c). Type of series: in vivo, human. The settings on record: patients with clinically elevated HbA1c at start; 250, 500, 750 mg P5P two weeks each, then 4-week washout. The protocol: In a phase II clinical study, conducted in accordance with generally accepted clinical practice standards, diabetic hypertensive patients were treated with P5P. Glucose control was determined by measuring glycated hemoglobin levels (HbA1c). Four weeks prior to treatment, patients ceased all antihypertensive therapy. Following the washout period, baseline HbA1c measurements were taken. Patients were than treated with 250 mg, 500 mg, and 750 mg of P5P for two weeks at each dosage. P5P treatment was then discontinued for 4 weeks. Following the washout period, HbA1c measurements were taken.

In a further series the test system is rat. Briefly: Acute toxicity evaluation of P5P in the rat. It counts as in vivo. The conditions noted are these: doses up to 5 g/kg. The protocol: as §1
A short description of series [5]: Phase I pharmacokinetics of P5P. It counts as in vivo, human. The conditions noted are these: Phase I dose levels; small numbers of subjects, large inter-subject variability. As to the method:
as §2

Series [6] has as its system rats. Briefly: 26-week oral toxicity in rats. Type of series: in vivo. The conditions noted are these: 26-week rat study. As to the method:
as §1

Series [7] deals with dogs. Briefly: 13-week oral toxicity in dogs. It counts as in vivo. The settings on record: 13-week dog study. The protocol: as §1
For series [8], the system named is dogs. As to the kind of experiment: Acute toxicity evaluation of P5P in dogs. The settings on record: doses up to 100 mg/kg. Type of series: in vivo, dog. The protocol: as §1
Series [9] relates to patients. Briefly: Phase I multi-dose tolerance study of P5P. Type of series: in vivo, human.

As for `NCCCC[C@H](N[C@@H](CCc1ccccc1)C(=O)O)C(=O)N1CCC[C@H]1C(=O)O` [lisinopril], in [1] (lisinopril 20 mg/dose and placebo, p=0.002), the “reduction in MDASBP from baseline” value worked out at 7.5 mmHg. Besides, the “reduction in MDADBP from baseline” value in [1] (lisinopril 20 mg/dose plus placebo, p=0.005) is recorded as 4.1 mmHg.
In the case of `Cc1ncc(COP(=O)(O)O)c(C=O)c1O` [P5P, pyridoxal-5′-phosphate], in the series with rats [2], the signs of toxicity result was “no signs of toxicity”. The adverse events result is “No adverse events were reported” in the series on patients [3] (single dose 15 mg/kg, enteric coated tablets, six patients); “One subject in the 30 mg/kg dose group experienced events of dizziness and sleepiness” in the series with patients [3] (single dose 30 mg/kg, enteric coated tablets, six patients). For the same compound, the “subjects reporting adverse events” value in the series with patients [3] (single dose 60 mg/kg, enteric coated tablets, six patients) is on record as “Four”. In the series with patients [3] (single dose 60 mg/kg, diarrhea, bradycardia, bubbly stomach, flatulence, headaches, mild in severity), this compound displayed a total adverse events of 10. For the same compound, the “reduction in HbA1c levels as compared to baseline” value in series [4] was 5.4%. In addition, the acute toxicity result with rat and in the series with dogs [8] was “no significant toxicity” in each case. Also, the dose-linearity of pharmacokinetics result in [5] was “did not demonstrate dose-linearity”. In addition, the “findings of toxicological significance” value in the series with rats [6] (any dose level (50, 100/175, 175/325 mg/kg)) is “No findings of toxicological significance”. The “findings in high dose group” value with rats [6] (high dose group) was “reversible reduction in body weight gain and increased incidence of stomach microulcers”; in the series with dogs [7] (50-60 mg/kg, all other findings mild to moderate) it was “anorexia and body weight loss”. The drug related toxicities entry in the series with dogs [7] (10 and 25 mg/kg) is “no drug related toxicities were observed”. The recovery entry with dogs [7] (50-60 mg/kg group, recovery phase) is “recovered almost completely”. Moreover, the tolerance entry in the series on patients [9] (multi-dose 30 mg/kg, one patient withdrew due to vomiting and diarrhea) is on record as “five of six patients treated with 30 mg/kg P5P tolerated the medication well”; in the series on patients [9] (multi-dose 60 mg/kg), “all 6 treated patients experiencing a variety of mild gastrointestinal symptoms”.
